The test system of test [1] is Axin2 and cyclin D1 protein expression. Put plainly: Western blot of Wnt target genes in SW480 cells. Format: cell-based. The note with it: 24 h. As to the method: Western Blotting of Wnt Target Genes. SW480 cells at 1×10^6 cells/mL were treated with different concentrations of inhibitors for 24 h. Cells were lysed in buffer containing 50 mM Tris, pH 7.4, 150 mM NaCl, 1% Nonidet P-40, 2 mM EDTA, and protease inhibitors. After centrifugation at 12,000 rpm for 20 min at 4° C., the supernatant was loaded onto an 8% SDS polyacrylamide gel for electrophoretic analysis. Separated proteins were transferred onto nitrocellulose membranes for immunoblot analysis. The antibodies against Axin2 (MA5-15015, Thermo Fisher), cyclin D1 (sc-853, Santa Cruz Biotechnology), and β-tubulin (sc-55529, Santa Cruz Biotechnology) were incubated with the membranes overnight at 4° C., respectively. IRDye 680LT goat anti-mouse IgG (827-11080, LiCOR) or IRDye 800CW goat anti-rabbit IgG (827-08365, LiCOR) was used as the secondary antibody. The images were detected by the Odyssey Infrared Imaging System (Odyssey Fc, LiCOR). Experiments were performed in duplicate.

For test [2], the system named is Wnt/β-catenin signaling (TOPFlash luciferase reporter). Kind of test: TOPFlash luciferase reporter assay in SW480 cells. The format is cell-based. Particulars: Homo sapiens, 24 h. As to the method: The suppressing effect of the inhibitors on transactivation of Wnt/β-catenin signaling was evaluated by the TOPFlash/FOPFlash luciferase reporter assay. In the TOPFlash assay, the luciferase reporter has three wild-type Tcf4 binding sites, while in the FOPFlash assay Tcf4 binding sites were mutated. These tandem Tcf binding sites controls the expression ratio of the firefly luciferase in TOPFlash/FOPFlash assays. The renilla luciferase reporter construct (pCMV-RL) was used as the internal control to normalize luciferase reporter signals and eliminate any possible systematic errors. […] This selectivity trend is consistent with that from MTS cell viability assays. Therefore, further cell-based studies were focused on compound 30.
Cell Transfection and Luciferase Assay. FuGENE6 (E269A, Promega) 96 well plate format was used for the transfection of SW480 cells according to the manufacturer's instruction. SW480 cells were co-transfected with 60 ng the TOPFlash or FOPFlash firefly luciferase reporter gene and 40 ng renilla luciferase pCMV-RL normalization reporter gene. Cells were cultured in DMEM and 10% FBS at 37° C. for 24 h, and different concentrations of inhibitors or DMSO was added. After 24 h, the luciferase reporter activity was measured using the Dual-Glo system (E2940, Promega). […]

Test [3] addresses T1, β-catenin/BCL9 PPI (Homo sapiens, UniProt P35222).
T1 construct: Full-length β-catenin (residues 1-781); host or cells: E. coli BL21 DE3
T1 sequence (P35222 1-781): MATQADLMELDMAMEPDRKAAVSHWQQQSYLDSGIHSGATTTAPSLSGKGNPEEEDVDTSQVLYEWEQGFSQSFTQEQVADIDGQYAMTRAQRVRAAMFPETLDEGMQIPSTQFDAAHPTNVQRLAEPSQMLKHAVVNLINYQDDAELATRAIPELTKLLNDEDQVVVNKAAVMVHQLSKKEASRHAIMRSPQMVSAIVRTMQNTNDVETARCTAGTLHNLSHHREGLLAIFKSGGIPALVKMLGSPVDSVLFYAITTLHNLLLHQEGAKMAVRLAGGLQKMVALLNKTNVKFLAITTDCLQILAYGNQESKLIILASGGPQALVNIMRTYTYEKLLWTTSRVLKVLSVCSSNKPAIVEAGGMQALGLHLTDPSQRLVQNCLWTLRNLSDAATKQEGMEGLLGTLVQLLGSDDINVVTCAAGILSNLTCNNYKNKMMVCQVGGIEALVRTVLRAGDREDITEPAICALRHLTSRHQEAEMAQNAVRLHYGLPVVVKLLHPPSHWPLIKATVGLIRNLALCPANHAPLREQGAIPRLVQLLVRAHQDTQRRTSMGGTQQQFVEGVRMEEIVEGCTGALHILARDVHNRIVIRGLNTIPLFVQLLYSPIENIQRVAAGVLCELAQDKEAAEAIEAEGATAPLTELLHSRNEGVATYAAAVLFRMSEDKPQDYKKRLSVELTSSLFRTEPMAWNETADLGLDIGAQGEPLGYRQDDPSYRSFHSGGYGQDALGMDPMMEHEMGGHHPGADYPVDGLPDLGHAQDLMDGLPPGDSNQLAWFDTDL
Kind of test: AlphaScreen competitive inhibition assay of β-catenin/BCL9 PPI. Format: binding. As to the method:
AlphaScreen Assays of β-Catenin and BCL9 Interaction. Experiments were performed in white opaque 384-well plates from PerkinElmer (Waltham, MA), and the samples were read on a Biotek Synergy 2 plate reader (Winooski, VT) with excitation at 680 nm and emission at 570 nm. The standard AlphaScreen protocol was used with a sensitivity setting of 200. All dilutions were made in 1x assay buffer containing 25 mM Hepes (pH 7.4), 100 mM NaCl, 0.01% Triton X-100 and 0.1% BSA to minimize nonspecific interactions.
For the β-catenin/BCL9 assay, 5 nM biotinylated BCL9, and 50 nM His6-tagged 8-catenin were incubated in assay buffer for 30 min. Different concentrations of the tested inhibitor were added and incubated in 20 μL assay buffer for another 1 h. All of the assay plates were covered and gently mixed on an orbital shaker. Donor and acceptor beads were then added to the plates to a final concentration of 10 μg/mL in 25 μL assay buffer. The mixture was incubated for 1 h before detection. The IC50 value was determined by nonlinear least-square analysis of GraphPad Prism 8.0. […] All of the experiments were performed in triplicate and carried out in the presence of 1% DMSO for small-molecule inhibitors. Each compound was assayed at least by three independent experiments. The results were expressed as mean±standard deviation.

Test [4] deals with SW480. Kind of test: MTS cell viability assay, SW480. Format: cell-based. Particulars: Homo sapiens, 72 h, Wnt/β-catenin hyperactive, mean ± SD (n = 3). As to the method:
MTS Cell Growth Inhibition Experiments. Colorectal cancer cells (SW480 and HCT116) and triple negative breast cancer cells (MDA-MB-231 and MDA-MB-468) were seeded in 96-well plates at 5×10^3 cells/well in DMEM with 10% FCS, maintained overnight at 37° C., and incubated with the tested compounds at various concentrations. Human mammary epithelial cell MCF10A were seeded in 96-well plates at 1×10^4 cells/well in MEGM (CC-3150, Lonza) with 100 ng/mL cholera toxin, maintained overnight at 37° C., and incubated with the tested compounds at various concentrations. Cell viability was monitored after 72 h using a freshly prepared mixture of 1 part phenazine methosulfate (PMS, Sigma) solution (0.92 mg/mL) and 19 parts 3-(4,5-dimethylthiazol-2-yl)-5-(3-carboxymethoxyphenyl)-2-(4-sulfophenyl)-2H-tetrazolium (MTS, Promega) solution (2 mg/mL). Cells were incubated in 10 μL of this solution at 37° C. for 3 h, and A490 was measured. […] Experiments were performed in triplicate.

Read-outs that look alike come from different tables or passages of the source. Some results are limits rather than exact numbers.

As for `CC(C)(Oc1cccc(N2CCC[C@H](C(=O)N(Cc3ccc(-c4cccs4)cc3)C3CC3)C2)c1)C(=O)NS(=O)(=O)c1ccc(C#N)cc1` [Compound 30, (S)-((4-Cyanophenyl)sulfonyl) (2-(3-(3-(cyclopropyl(4-(thiophen-2-yl)benzyl)carbamoyl)piperidin-1-yl)phenoxy)-2-methylpropanoyl)amide], the “protein expression levels of Axin2 and cyclin D1 (Western blot)” value in test [1] is reported as “dose-dependently decreased”. Besides, the IC50 is 6.6 µM in test [2]; no more than 5 µM in test [3] (Table 2, AlphaScreen, inhibitors 27-30 (R- and S-isomers), preliminary); 16.3 ± 2.04 µM in test [4]. The Ki in test [3] (AlphaScreen competitive inhibition assay, read-out: Ki for disruption of the β-catenin/BCL9 PPI) is 3.6 µM; in test [3] (Table 2, AlphaScreen, inhibitors 27-30 (R- and S-isomers), preliminary, read-out: Ki) it was no more than 5 µM. Further, the “AlphaScreen inhibitory activity in words” value in test [3] (SAR comparison) is “slightly superior to R-isomer”.

Values taken from US20250019371A1, “SMALL-MOLECULAR INHIBITORS FOR THE BETA-CATENIN/ B-CELL LYMPHOMA 9 PROTEIN-PROTEIN INTERACTION” (H. LEE MOFFITT CANCER CENTER AND RESEARCH INSTITUTE, INC., priority 2021, published 2025).
